Assay results: patent US4771068A, “Mitomycin derivatives having anti-tumor and antibacterial utility” (priority 1985, dated 1988)
Values after ≈ are worked out from the molar mass of the structure shown.

Tests used:
[1] = test system: Staphylococcus aureus ATCC 6538P; experiment: Antibacterial activity (minimum growth inhibitory concentration), agar dilution method; format: cell-based; settings: ATCC6538P, pH 7.0, agar dilution method, read-out: minimum growth inhibitory concentration, SA
Description: (§1) Antibacterial activities of Compounds (I) against various bacteria are shown by the minimum growth inhibitory concentration (μg/ml) in Table 3. The minimum growth inhibitory concentration was measured at pH 7.0 according to the agar dilution method. In the table, bacteria are indicated by the following letters.
SA: Staphylococcus aureus ATCC 6538P

[2] = test system: Klebsiella pneumoniae ATCC 10031; experiment: as above; format: cell-based; settings: ATCC10031; Klebsiella pneumoniae ATCC 10031, pH 7.0, agar dilution method; read-out: minimum growth inhibitory concentration, KP
Description: as §1
KP: Klebsiella pneumoniae ATCC 10031

[3] = test system: Proteus vulgalis ATCC 6897; experiment: as above; format: cell-based; settings: pH 7, read-out: minimum growth inhibitory concentration, PV
Description: as §1
PV: Proteus vulgalis ATCC 6897

[4] = test system: peripheral leucocytes; experiment: Effect on the peripheral leucocytes number; format: in vivo, mouse (ddY strain); settings: minimum dose reducing peripheral leucocytes number to 4000/mm^3; tumour-carrying ddY mice, intraperitoneal, 4 days after administration
Description: WBC4000 : Minimum dose of a test compound which reduces the
peripheral leucocytes number to 4000/mm^3.
Sarcoma 180 solid tumour cells (5×10^6) were subcutaneously implanted into the right axilla of each mouse (body weight 20±2 g) of a group consisting of 5 male mice (ddY strain). 24 hours after implantation,a test compound was intraperitoneally administered to each animal. 4 days after the administration, blood (each 0.02 ml) was collected from the suborbital plexus vein of each tumour-carrying animal. The collected sample of blood was dispersed in 9.98 ml of Cell-Kit Seven solution. One drop of saponin solution was added to the sample to dissolve erythrocytes and then a microcell counter was used to count the number of leucocytes. […] The relationship between the number of peripheral leucocytes and the dose of the test compound was plotted and the dose (i.e., WBC4000) corresponding to 4000 peripheral leucocytes/mm^3 (about half the number of leucocytes of normal mice) was obtained.

[5] = test system: Sarcoma 180 solid tumour; experiment: animal or person; settings: for CIc: CI of test compound divided by CI of mitomycin C as control in the same condition; for ED50: Mus musculus, Sarcoma-180, iv, 168 h; for CI (LD50/ED50): chemotherapeutic index
From the text: CIc : Value given by division of CI of each test compound by CI of
determination of antitumour activity of the test compound. A CIc
5×10^6 cells of Sarcoma 180 solid tumour were intraperitoneally implanted into ddY mice. 7 days later, ascites cells were sampled. The cells were washed once with a sterilized physiological sodium chloride solution and were used to prepare a cell suspension containing 5×10^7 cells per ml with a sterilized physiological sodium chloride solution. On each occasion, 0.1 ml of the cell suspension was subcutaneously implanted into the right axilla of a male mouse (ddY strain; body weight 20±2 g).
The anti-tumour activity was determined in the following manner. 7 days after the implantation, the major axis (a) and the minor axis (b) of the tumour were measured to calculate a value of "a×b^2 /2" which corresponds to the volume of the tumour. The anti-tumour activity was expressed by the ratio (T/C) of the volume (T) of the tumours of the group of animals administered with the test compound to the corresponding volume (C) of tumours of the untreated animals.
On graph paper, T/C was indicated by an arithmetic scale on the longitudinal axis and the administered amount of the test compound was indicated by a logarithmic scale on the lateral axis.

[6] = test system: Bacillus subtilis 10707; experiment: Antibacterial activity (minimum growth inhibitory concentration), agar dilution method; format: cell-based; settings: Bacillus subtilis 10707, pH 7.0, agar dilution method; read-out: minimum growth inhibitory concentration, BS
Description: as §1
BS: Bacillus subtilis 10707

[7] = test system: Streptococcus faecalis ATCC 10541; experiment: as above; format: cell-based; settings: Enterococcus faecalis, ATCC10541; Streptococcus faecalis ATCC 10541, pH 7.0, agar dilution method; read-out: minimum growth inhibitory concentration, SF
Description: as §1
SF: Streptococcus faecalis ATCC 10541

[8] = Acute toxicity; settings: mouse, in vivo, ip; ddY mice, intraperitoneally once, 14 days observation
Description: Each animal of the test group consisting of 5 ddY mice was administered intraperitoneally once with a test compound. […] The LD50 was determined by Beherns Kaerber's method.

[9] = Solubility in water; format: physicochemical; settings: aqueous buffer; 0.03M phosphate buffer (pH 7.0), 22° C., 15 minutes
Description: 1 mg of a test compound was added to 100 μl of 0.03M phosphate buffer (pH 7.0). The mixture was stirred at 22° C. for 15 minutes and filtered through Ekicrodisc 3 (disposable filter unit, Gelman Sciences Japan Co.) to remove insoluble matters. The filtrate is a saturated solution of the test compound. Predetermined amount of the saturated solution was injected into a high performance liquid chromatograph [column: YMC-A212 (C8) .phi.6 mm, 150 mm, eluting solvent: 0.01M-ammonium acetate/methanol, wave length for detection: 254 nm] and peak area of the chromatogram was calculated. Separately, a solution of the test compound in methanoL having a certain concentration of the compound was similarly subjected to the chromatography to make the calibration curve. The solubility of the test compound was calculated by the calibration curve.

## CO[C@@]12[C@H](COC(N)=O)C3=C(C(=O)C(C)=C(NCCSC(C)=O)C3=O)N1C[C@@H]1N[C@@H]12 [Compound 1, 7-N-[(2-acetylthio)ethyl]mitomycin]
[1]
  MIC: < 0.02 µg/mL
[2]
  MIC: 0.078 µg/mL (≈ 0.179 µM)
[3]
  MIC: 1.3 µg/mL (≈ 2.98 µM)
[4]
  WBC4000: 9.5 mg/kg
[5]
  CIc: 1.2
  ED50: 2.3 mg/kg
  CI (LD50/ED50): 2.4
[6]
  MIC: < 0.02 µg/mL
[7]
  MIC: < 0.02 µg/mL
[8]
  LD50 at 336 h: 5.6 mg/kg
[9]
  solubility at 0.25 h: 5600 µg/mL (≈ 12800 µM)

## CC(=O)SCCCNC1=C(C)C(=O)C2=C(C1=O)[C@H](COC(N)=O)[C@@]1(O)[C@@H]3[C@H](CN21)N3C (stereo partly shown) [Compound 8, 7-N-(3-acetylthiopropyl)mitomycin D]
[1]
  MIC: > 100 µg/mL
[6]
  MIC: 13 µg/mL (≈ 28.9 µM)
[7]
  MIC: 50 µg/mL (≈ 111 µM)
[9]
  solubility at 0.25 h: 9600 µg/mL (≈ 21300 µM)

## C=C1C2=C(C(=O)C(C)=C(NCCSC(=O)c3ccccc3)C2=O)N2C[C@H]3[C@H](N3C)[C@]12O (stereo partly shown) [Compound 15]
[1]
  MIC: 25 µg/mL (≈ 57.1 µM)
[2]
  MIC: 50 µg/mL (≈ 114 µM)
[3]
  MIC: 25 µg/mL (≈ 57.1 µM)
[4]
  WBC4000: 27.5 mg/kg
[5]
  CIc: ≥ 0.74
  ED50: 27.5 mg/kg
  CI (LD50/ED50): ≥ 1.8
[6]
  MIC: 1.6 µg/mL (≈ 3.66 µM)
[7]
  MIC: > 100 µg/mL
[8]
  LD50 at 336 h: ≥ 50 mg/kg

## CO[C@@]12[C@H](COC(N)=O)C3=C(C(=O)C(C)=C(NCCCCCCSC(=O)c4ccccc4)C3=O)N1C[C@@H]1N[C@@H]12 [Compound 17]
[1]
  MIC: 0.63 µg/mL (≈ 1.14 µM)
[2]
  MIC: 10 µg/mL (≈ 18 µM)
[3]
  MIC: > 40 µg/mL
[4]
  WBC4000: 32.2 mg/kg
[5]
  CIc: > 1.7
  ED50: 9.5 mg/kg
  CI (LD50/ED50): > 5.3
[6]
  MIC: 0.16 µg/mL (≈ 0.288 µM)
[7]
  MIC: 2.5 µg/mL (≈ 4.51 µM)
[8]
  LD50 at 336 h: > 50 mg/kg

## CO[C@@]12[C@H](COC(N)=O)C3=C(C(=O)C(C)=C(NCCSC(=O)c4ccc(F)cc4)C3=O)N1C[C@@H]1N[C@@H]12 [Compound 18]
[1]
  MIC: < 0.02 µg/mL
[2]
  MIC: 5 µg/mL (≈ 9.68 µM)
[3]
  MIC: 10 µg/mL (≈ 19.4 µM)
[4]
  WBC4000: 5 mg/kg
[5]
  CIc: 1.2
  ED50: 1.6 mg/kg
  CI (LD50/ED50): 3.8
[6]
  MIC: < 0.02 µg/mL
[7]
  MIC: 0.16 µg/mL (≈ 0.31 µM)
[8]
  LD50 at 336 h: 6 mg/kg

## CO[C@@]12[C@H](COC(N)=O)C3=C(C(=O)C(C)=C(NCCCCCCCCSC(=O)c4ccc(F)cc4)C3=O)N1C[C@@H]1N[C@@H]12 [Compound 20]
[1]
  MIC: 0.63 µg/mL (≈ 1.05 µM)
[2]
  MIC: 40 µg/mL (≈ 66.6 µM)
[3]
  MIC: > 40 µg/mL
[4]
  WBC4000: 13.0 mg/kg
[5]
  CIc: 1.6
  ED50: 16.3 mg/kg
  CI (LD50/ED50): 3.8
[6]
  MIC: 0.31 µg/mL (≈ 0.516 µM)
[7]
  MIC: 0.63 µg/mL (≈ 1.05 µM)
[8]
  LD50 at 336 h: 62.5 mg/kg

## COc1ccc(C(=O)SCCNC2=C(C)C(=O)C3=C(C2=O)[C@@H](COC(N)=O)[C@@]2(OC)[C@H]4N[C@H]4CN32)cc1 [Compound 23]
[1]
  MIC: < 0.02 µg/mL
[2]
  MIC: 5 µg/mL (≈ 9.46 µM)
[3]
  MIC: 10 µg/mL (≈ 18.9 µM)
[4]
  WBC4000: 5 mg/kg
[5]
  CIc: 0.81
  ED50: 2.5 mg/kg
  CI (LD50/ED50): 2.5
[6]
  MIC: < 0.02 µg/mL
[7]
  MIC: 0.16 µg/mL (≈ 0.303 µM)
[8]
  LD50 at 336 h: 6.3 mg/kg

## CC1=C(NCCSC(=O)c2ccc([N+](=O)[O-])cc2)C(=O)C2=C(C1=O)N1C[C@H]3[C@H](N3C)[C@]1(O)[C@H]2COC(N)=O (stereo partly shown) [Compound 25]
[1]
  MIC: 3.1 µg/mL (≈ 5.7 µM)
[2]
  MIC: 13 µg/mL (≈ 23.9 µM)
[3]
  MIC: > 100 µg/mL
[4]
  WBC4000: 15.9 mg/kg
[5]
  CIc: 1.6
  ED50: 6.9 mg/kg
  CI (LD50/ED50): 4.9
[6]
  MIC: 0.39 µg/mL (≈ 0.717 µM)
[7]
  MIC: 13 µg/mL (≈ 23.9 µM)
[8]
  LD50 at 336 h: 33.8 mg/kg

## CC(=S)SCCNC1=C(C)C(=O)C2=C(C1=O)[C@H](COC(N)=O)[C@@]1(O)[C@@H]3[C@H](CN21)N3C (stereo partly shown) [Compound 27, 7-N-(2-dithioacetyloxyethyl)mitomycin D]
[1]
  MIC: 0.2 µg/mL (≈ 0.442 µM)
[2]
  MIC: 0.78 µg/mL (≈ 1.72 µM)
[3]
  MIC: 3.1 µg/mL (≈ 6.85 µM)
[4]
  WBC4000: 15.5 mg/kg
[5]
  CIc: 1.1
  ED50: 3.4 mg/kg
  CI (LD50/ED50): 3.9
[6]
  MIC: < 0.049 µg/mL
[7]
  MIC: 0.39 µg/mL (≈ 0.862 µM)
[8]
  LD50 at 336 h: 13.1 mg/kg

## CO[C@@]12[C@H](COC(N)=O)C3=C(C(=O)C(C)=C(NCCSC(C)=S)C3=O)N1C[C@H]1[C@@H]2N1C (stereo partly shown) [Compound 28]
[1]
  MIC: < 0.02 µg/mL
[2]
  MIC: 1.3 µg/mL (≈ 2.79 µM)
[3]
  MIC: 2.5 µg/mL (≈ 5.36 µM)
[4]
  WBC4000: 10.4 mg/kg
[5]
  CIc: 1.1
  ED50: 3.3 mg/kg
  CI (LD50/ED50): 4.0
[6]
  MIC: < 0.02 µg/mL
[7]
  MIC: 0.039 µg/mL (≈ 0.0836 µM)
[8]
  LD50 at 336 h: 13.1 mg/kg

## CO[C@@]12[C@H](COC(N)=O)C3=C(C(=O)C(C)=C(NCCCCSC(C)=S)C3=O)N1C[C@@H]1N[C@@H]12 [Compound 30]
[1]
  MIC: 0.31 µg/mL (≈ 0.645 µM)
[2]
  MIC: 1.3 µg/mL (≈ 2.7 µM)
[3]
  MIC: 5 µg/mL (≈ 10.4 µM)
[4]
  WBC4000: 58.1 mg/kg
[5]
  CIc: > 1.1
  ED50: 37.7 mg/kg
  CI (LD50/ED50): > 2.7
[6]
  MIC: 0.31 µg/mL (≈ 0.645 µM)
[7]
  MIC: 0.31 µg/mL (≈ 0.645 µM)
[8]
  LD50 at 336 h: > 100 mg/kg

## CO[C@@]12[C@H](COC(N)=O)C3=C(C(=O)C(C)=C(NCCCCCCSC(C)=S)C3=O)N1C[C@@H]1N[C@@H]12 [Compound 31]
[1]
  MIC: 1.3 µg/mL (≈ 2.56 µM)
[2]
  MIC: 2.5 µg/mL (≈ 4.91 µM)
[3]
  MIC: 10 µg/mL (≈ 19.7 µM)
[4]
  WBC4000: 27.5 mg/kg
[5]
  CIc: > 1.5
  ED50: 28.1 mg/kg
  CI (LD50/ED50): > 3.6
[6]
  MIC: 2.5 µg/mL (≈ 4.91 µM)
[7]
  MIC: 2.5 µg/mL (≈ 4.91 µM)
[8]
  LD50 at 336 h: > 100 mg/kg
